Laboratory results as given in BigSolDB 2.1.

Nc1nc(N)nc(NC2CC2)n1
Conditions	solubility (mole fraction)
in acetic acid, 293.15 K	0.0128
in acetic acid, 298.15 K	0.0155
in acetic acid, 303.15 K	0.0187
in acetic acid, 308.15 K	0.0227
in acetic acid, 313.15 K	0.0275
in acetic acid, 318.15 K	0.033
in acetic acid, 323.15 K	0.0395
in acetic acid, 328.15 K	0.0471
in acetic acid, 333.15 K	0.0562
in acetone, 283.15 K	0.000486
in acetone, 288.15 K	0.000535
in acetone, 293.15 K	0.000617
in acetone, 298.15 K	0.00071
in acetone, 303.15 K	0.000805
in acetone, 308.15 K	0.00091
in acetone, 313.15 K	0.00103
in acetone, 318.15 K	0.00114
in acetone, 323.15 K	0.00127
in acrylic acid, 293.15 K	0.0341
in acrylic acid, 298.15 K	0.0413
in acrylic acid, 303.15 K	0.0492
in acrylic acid, 308.15 K	0.0581
in acrylic acid, 313.15 K	0.0683
in acrylic acid, 318.15 K	0.0785
in acrylic acid, 323.15 K	0.09
in acrylic acid, 328.15 K	0.101
in acrylic acid, 333.15 K	0.112
in ethanol, 283.15 K	0.000916
in ethanol, 288.15 K	0.00107
in ethanol, 293.15 K	0.00127
in ethanol, 298.15 K	0.00149
in ethanol, 303.15 K	0.00172
in ethanol, 308.15 K	0.00205
in ethanol, 313.15 K	0.00253
in ethanol, 318.15 K	0.00299
in ethanol, 323.15 K	0.00355
in isobutanol, 283.15 K	0.000396
in isobutanol, 288.15 K	0.000483
in isobutanol, 293.15 K	0.000594
in isobutanol, 298.15 K	0.000702
in isobutanol, 303.15 K	0.00084
in isobutanol, 308.15 K	0.000983
in isobutanol, 313.15 K	0.00115
in isobutanol, 318.15 K	0.00131
in isobutanol, 323.15 K	0.0015
in isopentanol, 283.15 K	0.000469
in isopentanol, 288.15 K	0.000592
in isopentanol, 293.15 K	0.000725
in isopentanol, 298.15 K	0.00087
in isopentanol, 303.15 K	0.00104
in isopentanol, 308.15 K	0.00127
in isopentanol, 313.15 K	0.00148
in isopentanol, 318.15 K	0.0018
in isopentanol, 323.15 K	0.00214
in isopropanol, 283.15 K	0.000465
in isopropanol, 288.15 K	0.000529
in isopropanol, 293.15 K	0.000638
in isopropanol, 298.15 K	0.000751
in isopropanol, 303.15 K	0.000915
in isopropanol, 308.15 K	0.00109
in isopropanol, 313.15 K	0.00125
in isopropanol, 318.15 K	0.00146
in isopropanol, 323.15 K	0.00172
in methanol, 283.15 K	0.00199
in methanol, 288.15 K	0.00224
in methanol, 293.15 K	0.00251
in methanol, 298.15 K	0.00279
in methanol, 303.15 K	0.0031
in methanol, 308.15 K	0.00344
in methanol, 313.15 K	0.00378
in methanol, 318.15 K	0.00416
in methanol, 323.15 K	0.00456
in n-butanol, 283.15 K	0.00073
in n-butanol, 288.15 K	0.000871
in n-butanol, 293.15 K	0.00104
in n-butanol, 298.15 K	0.00126
in n-butanol, 303.15 K	0.0015
in n-butanol, 308.15 K	0.00179
in n-butanol, 313.15 K	0.00217
in n-butanol, 318.15 K	0.00262
in n-butanol, 323.15 K	0.0031
in n-heptanol, 283.15 K	0.000235
in n-heptanol, 288.15 K	0.000322
in n-heptanol, 293.15 K	0.000422
in n-heptanol, 298.15 K	0.000556
in n-heptanol, 303.15 K	0.000737
in n-heptanol, 308.15 K	0.000957
in n-heptanol, 313.15 K	0.00124
in n-heptanol, 318.15 K	0.00162
in n-heptanol, 323.15 K	0.00213
in n-hexanol, 283.15 K	0.000534
in n-hexanol, 288.15 K	0.000661
in n-hexanol, 293.15 K	0.000816
in n-hexanol, 298.15 K	0.001
in n-hexanol, 303.15 K	0.00123
in n-hexanol, 308.15 K	0.00151
in n-hexanol, 313.15 K	0.00185
in n-hexanol, 318.15 K	0.00227
in n-hexanol, 323.15 K	0.00279
in n-pentanol, 283.15 K	0.000671
in n-pentanol, 288.15 K	0.000818
in n-pentanol, 293.15 K	0.000981
in n-pentanol, 298.15 K	0.00119
in n-pentanol, 303.15 K	0.00142
in n-pentanol, 308.15 K	0.00171
in n-pentanol, 313.15 K	0.00204
in n-pentanol, 318.15 K	0.00245
in n-pentanol, 323.15 K	0.00291
in n-propanol, 283.15 K	0.000809
in n-propanol, 288.15 K	0.000927
in n-propanol, 293.15 K	0.00113
in n-propanol, 298.15 K	0.00136
in n-propanol, 303.15 K	0.00163
in n-propanol, 308.15 K	0.00191
in n-propanol, 313.15 K	0.00237
in n-propanol, 318.15 K	0.00281
in n-propanol, 323.15 K	0.00327
in propionic acid, 278.15 K	0.00472
in propionic acid, 283.15 K	0.00562
in propionic acid, 288.15 K	0.00697
in propionic acid, 293.15 K	0.00847
in propionic acid, 298.15 K	0.0101
in propionic acid, 303.15 K	0.0123
in propionic acid, 308.15 K	0.0148
in propionic acid, 313.15 K	0.0177
in propionic acid, 318.15 K	0.0212
in sec-butanol, 283.15 K	0.000301
in sec-butanol, 288.15 K	0.00038
in sec-butanol, 293.15 K	0.00048
in sec-butanol, 298.15 K	0.000581
in sec-butanol, 303.15 K	0.000686
in sec-butanol, 308.15 K	0.000846
in sec-butanol, 313.15 K	0.000995
in sec-butanol, 318.15 K	0.0012
in sec-butanol, 323.15 K	0.00147
in water, 283.15 K	0.000931
in water, 288.15 K	0.00108
in water, 293.15 K	0.00125
in water, 298.15 K	0.00144
in water, 303.15 K	0.00166
in water, 308.15 K	0.00193
in water, 313.15 K	0.00221
in water, 318.15 K	0.00254
in water, 323.15 K	0.00293
